Test results taken from ChEMBL document CHEMBL1201862, “PubChem BioAssay data set” (2004).
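Values below derive from 48-hour exposures of cells grown in 96-well plates, with endpoints linearly interpolated between the two concentrations bracketing the appropriate inhibition level. The concentration for 50% growth inhibition is given as GI50.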 Calls of active or inactive are those of the source. Cut-off read from the data, not from the text of the source: active = GI50 up to about 1.1 µM and inactive = higher.

What was measured:
Test in all cases: DTP human tumour cell line panel, 48 h
SK-MEL-28 = tested on: SK-MEL-28
DMS-273 = tested on: DMS-273
RPMI-8226 = tested on: RPMI-8226
MDA-N = tested on: MDA-N
NCI-H226 = tested on: NCI-H226
UACC-62 = tested on: UACC-62
LOX IMVI = tested on: LOX IMVI
T47D = tested on: T47D
MCF7 = tested on: MCF7
MDA-MB-435 = tested on: MDA-MB-435
SR = tested on: SR
NCI-H23 = tested on: NCI-H23
SF-295 = tested on: SF-295
SW-620 = tested on: SW-620
HOP-18 = tested on: HOP-18
SK-OV-3 = tested on: SK-OV-3
DMS-114 = tested on: DMS-114
SNB-75 = tested on: SNB-75
IGROV-1 = tested on: IGROV-1
TK-10 = tested on: TK-10
MOLT-4 = tested on: MOLT-4
M19-MEL = tested on: M19-MEL
HCC 2998 = tested on: HCC 2998
SK-MEL-2 = tested on: SK-MEL-2
KM12 = tested on: KM12
Malme-3M = tested on: Malme-3M
HCT-116 = tested on: HCT-116
HOP-92 = tested on: HOP-92
DU-145 = tested on: DU-145
Hs-578T = tested on: Hs-578T
CCRF-CEM = tested on: CCRF-CEM
RXF 393 = tested on: RXF 393
OVCAR-4 = tested on: OVCAR-4
HL-60 = tested on: HL-60
A549 = tested on: A549
SF-268 = tested on: SF-268
PC-3 = tested on: PC-3
KM-20L2 = tested on: KM-20L2
M14 = tested on: M14
K562 = tested on: K562
NCI-H460 = tested on: NCI-H460
HCT-15 = tested on: HCT-15
LXFL 529 = tested on: LXFL 529
CAKI-1 = tested on: CAKI-1
NCI-H522 = tested on: NCI-H522
OVCAR-5 = tested on: OVCAR-5
COLO 205 = tested on: COLO 205
BT-549 = tested on: BT-549
MDA-MB-231 = tested on: MDA-MB-231
SF-539 = tested on: SF-539
EKVX = tested on: EKVX
OVCAR-8 = tested on: OVCAR-8
DLD-1 = tested on: DLD-1
SN12C = tested on: SN12C
ACHN = tested on: ACHN
UACC-257 = tested on: UACC-257
XF498 = tested on: XF498
786-0 = tested on: 786-0
UO-31 = tested on: UO-31
HT-29 = tested on: HT-29
U-251 = tested on: U-251
HOP-62 = tested on: HOP-62
SNB-19 = tested on: SNB-19
SK-MEL-5 = tested on: SK-MEL-5
OVCAR-3 = tested on: OVCAR-3
A498 = tested on: A498
SNB-78 = tested on: SNB-78
NCI/ADR-RES = tested on: NCI/ADR-RES

Measured: GI50

CC1=C(C(=O)Nc2ccccc2)C(c2ccc(C3C(C(=O)Nc4ccccc4)=C(C)NC(C)=C3C(=O)Nc3ccccc3)cc2)C(C(=O)Nc2ccccc2)=C(C)N1
inactive: SK-MEL-28 1.79 µM | DMS-273 2.62 µM | RPMI-8226 2.61 µM | MDA-N 3.23 µM | NCI-H226 3.96 µM | UACC-62 1.67 µM | LOX IMVI 1.61 µM | T47D 2.7 µM | MCF7 2.86 µM | MDA-MB-435 1.86 µM | SR 2.03 µM | NCI-H23 2.86 µM | SF-295 2.88 µM | SW-620 2.11 µM | HOP-18 8.22 µM | SK-OV-3 13.1 µM | DMS-114 3.83 µM | SNB-75 8.2 µM | IGROV-1 2.52 µM | TK-10 6.46 µM | MOLT-4 1.96 µM | M19-MEL 3.5 µM | HCC 2998 2.47 µM | SK-MEL-2 2.07 µM | KM12 2.09 µM | Malme-3M 1.89 µM | HCT-116 2 µM | HOP-92 3.51 µM | DU-145 > 10 µM | Hs-578T 2.88 µM | CCRF-CEM 1.58 µM | RXF 393 1.91 µM | OVCAR-4 6.03 µM | HL-60 2.43 µM | A549 8.05 µM | SF-268 2.2 µM | PC-3 3.23 µM | KM-20L2 2.04 µM | M14 2.5 µM | K562 2.67 µM | NCI-H460 2.67 µM | LXFL 529 2.1 µM | CAKI-1 4.02 µM | NCI-H522 1.54 µM | OVCAR-5 7.35 µM | COLO 205 3.21 µM | BT-549 2.55 µM | MDA-MB-231 2.8 µM | SF-539 3.56 µM | EKVX 4.72 µM | OVCAR-8 3.03 µM | DLD-1 2.38 µM | SN12C 2.04 µM | ACHN 2.04 µM | UACC-257 2.13 µM | XF498 7.36 µM | 786-0 2.54 µM | UO-31 9.27 µM | HT-29 1.85 µM | U-251 1.49 µM | HOP-62 3.68 µM | SNB-19 6.31 µM | SK-MEL-5 2.26 µM | OVCAR-3 4.38 µM | A498 8.99 µM
2.72 µM: HCT-15

CCCN1C(=O)/C(=C(/O)C(=O)OCC)C(c2ccc(OC)c(OC)c2)C1=O (stereo unspecified)
inactive: SK-MEL-28 > 100 µM | DMS-273 > 100 µM | RPMI-8226 > 93.8 µM | NCI-H226 > 100 µM | UACC-62 > 100 µM | LOX IMVI > 100 µM | MCF7 > 100 µM | NCI-H23 > 100 µM | SF-295 > 100 µM | SW-620 > 100 µM | HOP-18 > 100 µM | SK-OV-3 > 100 µM | DMS-114 > 100 µM | SNB-75 > 100 µM | IGROV-1 > 100 µM | MOLT-4 > 100 µM | M19-MEL > 100 µM | HCC 2998 > 100 µM | SK-MEL-2 > 100 µM | KM12 > 100 µM | Malme-3M > 100 µM | HCT-116 > 100 µM | HOP-92 > 100 µM | SNB-78 > 100 µM | CCRF-CEM > 100 µM | RXF 393 > 100 µM | OVCAR-4 > 100 µM | HL-60 > 100 µM | A549 > 100 µM | SF-268 > 100 µM | KM-20L2 > 100 µM | K562 > 100 µM | NCI-H460 > 31.6 µM | CAKI-1 > 100 µM | NCI-H522 > 100 µM | OVCAR-5 > 100 µM | COLO 205 > 100 µM | SF-539 > 100 µM | EKVX > 100 µM | OVCAR-8 > 100 µM | DLD-1 > 100 µM | SN12C > 100 µM | UACC-257 > 100 µM | XF498 > 100 µM | UO-31 > 100 µM | HT-29 > 100 µM | NCI/ADR-RES > 100 µM | U-251 > 100 µM | HOP-62 > 100 µM | SNB-19 > 100 µM | SK-MEL-5 > 100 µM | OVCAR-3 > 47.8 µM | A498 > 100 µM
> 100 µM: HCT-15

CCOC(=O)CN(CC)C(=O)NC12CC3CC(CC(C3)C1)C2
inactive: SK-MEL-28 269 µM | DMS-273 233 µM | RPMI-8226 141 µM | NCI-H226 160 µM | UACC-62 116 µM | LOX IMVI 151 µM | MCF7 177 µM | NCI-H23 208 µM | SF-295 230 µM | SW-620 219 µM | HOP-18 148 µM | SK-OV-3 218 µM | DMS-114 134 µM | SNB-75 92.9 µM | IGROV-1 276 µM | MOLT-4 133 µM | M19-MEL 184 µM | HCC 2998 222 µM | SK-MEL-2 131 µM | KM12 255 µM | Malme-3M 152 µM | HCT-116 189 µM | HOP-92 67 µM | SNB-78 240 µM | CCRF-CEM 211 µM | RXF 393 173 µM | OVCAR-4 175 µM | HL-60 103 µM | A549 222 µM | SF-268 281 µM | KM-20L2 170 µM | K562 180 µM | NCI-H460 200 µM | CAKI-1 169 µM | NCI-H522 155 µM | OVCAR-5 225 µM | COLO 205 141 µM | SF-539 244 µM | EKVX 207 µM | OVCAR-8 292 µM | DLD-1 65.8 µM | SN12C 288 µM | UACC-257 144 µM | XF498 125 µM | UO-31 139 µM | HT-29 166 µM | NCI/ADR-RES 196 µM | U-251 246 µM | HOP-62 188 µM | SNB-19 339 µM | SK-MEL-5 109 µM | OVCAR-3 105 µM | A498 136 µM
220 µM: HCT-15

O=C(O)C12CC3CC(CC(F)(C3)C1)C2
inactive: SK-MEL-28 > 100 µM | DMS-273 > 100 µM | RPMI-8226 > 100 µM | UACC-62 > 100 µM | LOX IMVI > 100 µM | NCI-H23 > 100 µM | SW-620 > 100 µM | SK-OV-3 > 100 µM | DMS-114 > 100 µM | SNB-75 65.5 µM | IGROV-1 > 100 µM | TK-10 > 100 µM | MOLT-4 > 100 µM | M19-MEL > 100 µM | HCC 2998 > 100 µM | SK-MEL-2 > 100 µM | KM12 > 100 µM | Malme-3M > 100 µM | HCT-116 > 100 µM | HOP-92 > 100 µM | SNB-78 32.2 µM | CCRF-CEM > 100 µM | RXF 393 > 100 µM | HL-60 > 100 µM | A549 > 100 µM | KM-20L2 > 100 µM | M14 > 100 µM | K562 > 100 µM | NCI-H460 > 100 µM | LXFL 529 > 100 µM | NCI-H522 > 100 µM | OVCAR-5 > 100 µM | COLO 205 > 100 µM | SF-539 > 100 µM | EKVX > 100 µM | OVCAR-8 > 100 µM | DLD-1 > 100 µM | ACHN > 100 µM | UACC-257 > 100 µM | XF498 > 100 µM | 786-0 > 100 µM | UO-31 > 100 µM | HT-29 > 100 µM | U-251 > 100 µM | HOP-62 > 100 µM | SK-MEL-5 > 100 µM | OVCAR-3 > 100 µM | A498 > 100 µM

C=C1C(=O)[C@@]23CC[C@H]4[C@@](C)(CCC[C@@]4(C)C(=O)OC)[C@@H]2CC[C@]1(O)C3
inactive: SK-MEL-28 1.84 µM | DMS-273 1.67 µM | NCI-H226 3.3 µM | UACC-62 1.6 µM | MCF7 2.12 µM | NCI-H23 1.57 µM | SF-295 5.82 µM | HOP-18 2.07 µM | SK-OV-3 19.2 µM | SNB-75 2.37 µM | IGROV-1 1.63 µM | M19-MEL 1.56 µM | HCC 2998 2.82 µM | SK-MEL-2 1.71 µM | KM12 2.39 µM | HOP-92 1.78 µM | OVCAR-4 1.89 µM | A549 3.1 µM | SF-268 1.9 µM | NCI-H460 3.58 µM | CAKI-1 1.55 µM | NCI-H522 1.54 µM | OVCAR-5 2.02 µM | COLO 205 1.72 µM | SF-539 1.76 µM | EKVX 2.06 µM | OVCAR-8 1.47 µM | SN12C 1.77 µM | UACC-257 1.72 µM | XF498 1.75 µM | UO-31 2.32 µM | HT-29 1.27 µM | NCI/ADR-RES 1.37 µM | U-251 3.38 µM | HOP-62 20.2 µM | SNB-19 13 µM | SK-MEL-5 1.93 µM | OVCAR-3 1.84 µM | A498 1.71 µM
active: RPMI-8226 0.286 µM | LOX IMVI 0.953 µM | SW-620 0.624 µM | MOLT-4 0.271 µM | HCT-116 0.953 µM | CCRF-CEM 0.2 µM | HL-60 0.301 µM | K562 0.604 µM | DLD-1 0.32 µM
1.26 µM: HCT-15
